In patent US6514967B1 (priority 1997, dated 2003):
Where two headings read alike, the source gives them in different places.

Tests used:
[1] = biological target: xanthine oxidase (Homo sapiens, UniProt P47989); assay: Action of the derivatives on xanthine oxidase; type: biochemical; conditions: for inhibition at 100 µM: read-out: % inhibition 100 μM; for inhibition at 500 µM: read-out: % inhibition 500 μM
Description: Action of the derivatives on xanthine oxidase:
(Free Radical Biology & Medicine, Vol 20, No 1, pp.35-43, 1996)
[…] of xanthine 20 mM in soda 0.1N and […] of the test product in phosphate buffer at pH 7.4 were placed in a final volume of 2 ml. Reaction is started by adding […] of solution of xanthine oxidase at 0.56 U/ml. Formation of […] is monitored by UV spectroscopy at 290 nm. Allopurinol is a reference inhibitor.

[2] = Chemical test of capture of OH• radicals (deoxyribose competition); type: biochemical; conditions: rate constant of reaction of the competitor with OH•, competition with 2-deoxyribose, UV at 532 nm
Description: A) Chemical test of capture of OH^• radicals:
(Free Rad. Res. Comms., Vol. 14, Nos. 5-6, pp. 363-372)
[…] of buffer (30 mM Na2HPO4.7H2O, 40 mM NaCl, 0.1 mM EDTA), 125 ml of deoxyribose at 2.10^−3 mM and 125 ml of 4-times concentrated solution of radical inhibitor (final concentration from 0 to 0.5 mM) were placed in glass haemolysis tubes cooled on an ice bath. […] of FeSO4 at 10^−3 mM (in water) is added at time 0. After 15 min of incubation the reaction is stopped with 250 ml of trichloroacetic acid at 3%, to which is added 250 ml of solution of thiobarbituric acid at 1.5% (in water). The tubes are kept at 100° C. for 10 min then cooled for detection with UV at 532 nm. The linear relation A0/A=1+ks/dkr [(competitor)/(2-deoxyribose)] was used, where A0 and A denote the absorbances in the absence and in the presence of competitor, ks is the rate constant of reaction of the competitor with OH• and kdr=1.9*10^9 M^−1 sec^−1 is the rate constant of reaction of 2-deoxyribose with OH•. Thus ks is equal to the gradient of the straight line A0/A f((competitor)/(2-deoxyribose)) multiplied by kdr.

[3] = test system: astrocytes; assay: Recapture of glutamate by cultures of astrocytes, radicals generated by xanthine/xanthine oxidase (X/XO); type: cell-based, rats
Description: B) Procedure with cultures of astrocytes and generation of radicals by the xanthine/xanthine oxidase (X/XO) pair
400 μl of D-lysine at 25 μg/ml (9 ml of D-lysine at 100 μg per ml of borate buffer (0.1M pH 8.4)+27 ml of water) is placed in each well of 24-well culture plates. The wells are left in the stove (5% CO2, 37° C.) over night. Each well is rinsed with 2 times 750 μl of Hanks before receiving the culture medium. 3 lateral demi cortices are taken from rats aged 1 to 2 days. (The hippocampus, the striatum and the meninges are removed). The demi cortices are placed in 2 ml of trypsin-EDTA then put in the stove for 30 min. The action of the trypsin is stopped with 10% of decomplemented foetal calf serum (200 μl). The serum and the trypsin are removed then the cells are dissociated with a pipette in 10 ml of medium (MEM 225 ml+FCS-D 25 ml+glucose 20% 7.5 ml) (MEM=minimum essential medium; FCS-D=decomplemented foetal calf serum). The culture medium is made up to 30 ml, stirred and placed at 400 μl per well. The medium is changed twice weekly for 18 days. The last replacement is effected 4 days prior to the treatment, with a medium without decomplemented foetal calf serum. (MEM 31.5 ml+glucose 20% 1.05 ml).
Treatment takes place on the 18th or 19th day.
Each well is washed with 750 μl of buffer (NaCl 124 mM, KCl 4.6 mM, CaCl2 1.2 mM, MgCl2 1.3 mM, KH2PO4 0.416 mM, NaHCO3 26.75 mM, glucose 10 mM; pH 7.4) for 10 min. The cells are incubated in the presence of xanthine (500 μM) and of the test product (from 0 to 1 mM). After 10 min, xanthine oxidase is added (50 mU/ml) and it is again left to incubate for 10 min. Release of radicals is stopped by washing 3 times with catalase (3000 U/ml). The glutamate is then recaptured in a solution of radioactive glutamate (^3H) at 40 μM (isotopic dilution 1/20000). Recapture is stopped by washing 3 times with the cold buffer. The cells are detached with soda 0.2N and the radioactivity is measured.
Firstly we checked that the inhibition of recapture observed in the presence of X/XO is indeed due to a radical process. For this we replaced the test products with two enzymes: SOD (SuperOxide Dismutase) and catalase (FIG. 1). […] The Fenton reaction converting hydrogen peroxide to OH• is thus short-circuited. […] However, as there seems to be sufficient reducing agent in the medium to promote the formation of H2O2 starting from O2^•^−, it appears likely that a substantial proportion of H2O2 gives OH• (a highly reactive radical).
FIGS. 3 to 8 are the mean of at least 4 independent tests in which the protective power of IC180, IC023, IC241, IC2-16, IC178, IC140, IC209, IC237, IC146, IC193, IC194, IC242, IC207, IC2-19, IC219, IC2-21, and IC249, as a function of the dose, was tested against a fixed concentration of radicals, and therefore of X/XO. In the case of IC180, the increase in recapture appears to be linear (up to 100% is found in some tests). […] Since IC023 alone only becomes “toxic” starting from 1 mM, the variation observed starting from 0.6 mM might reflect the existence of metabolites that are poorly tolerated by the cells. The derivative morpholine IC180 is more interesting.

[4] = product at 100 μM, UV at 290 nm
[5] = product at 500 μM, UV at 290 nm

Chain of xanthine oxidase (P47989 whole entry, species assumed): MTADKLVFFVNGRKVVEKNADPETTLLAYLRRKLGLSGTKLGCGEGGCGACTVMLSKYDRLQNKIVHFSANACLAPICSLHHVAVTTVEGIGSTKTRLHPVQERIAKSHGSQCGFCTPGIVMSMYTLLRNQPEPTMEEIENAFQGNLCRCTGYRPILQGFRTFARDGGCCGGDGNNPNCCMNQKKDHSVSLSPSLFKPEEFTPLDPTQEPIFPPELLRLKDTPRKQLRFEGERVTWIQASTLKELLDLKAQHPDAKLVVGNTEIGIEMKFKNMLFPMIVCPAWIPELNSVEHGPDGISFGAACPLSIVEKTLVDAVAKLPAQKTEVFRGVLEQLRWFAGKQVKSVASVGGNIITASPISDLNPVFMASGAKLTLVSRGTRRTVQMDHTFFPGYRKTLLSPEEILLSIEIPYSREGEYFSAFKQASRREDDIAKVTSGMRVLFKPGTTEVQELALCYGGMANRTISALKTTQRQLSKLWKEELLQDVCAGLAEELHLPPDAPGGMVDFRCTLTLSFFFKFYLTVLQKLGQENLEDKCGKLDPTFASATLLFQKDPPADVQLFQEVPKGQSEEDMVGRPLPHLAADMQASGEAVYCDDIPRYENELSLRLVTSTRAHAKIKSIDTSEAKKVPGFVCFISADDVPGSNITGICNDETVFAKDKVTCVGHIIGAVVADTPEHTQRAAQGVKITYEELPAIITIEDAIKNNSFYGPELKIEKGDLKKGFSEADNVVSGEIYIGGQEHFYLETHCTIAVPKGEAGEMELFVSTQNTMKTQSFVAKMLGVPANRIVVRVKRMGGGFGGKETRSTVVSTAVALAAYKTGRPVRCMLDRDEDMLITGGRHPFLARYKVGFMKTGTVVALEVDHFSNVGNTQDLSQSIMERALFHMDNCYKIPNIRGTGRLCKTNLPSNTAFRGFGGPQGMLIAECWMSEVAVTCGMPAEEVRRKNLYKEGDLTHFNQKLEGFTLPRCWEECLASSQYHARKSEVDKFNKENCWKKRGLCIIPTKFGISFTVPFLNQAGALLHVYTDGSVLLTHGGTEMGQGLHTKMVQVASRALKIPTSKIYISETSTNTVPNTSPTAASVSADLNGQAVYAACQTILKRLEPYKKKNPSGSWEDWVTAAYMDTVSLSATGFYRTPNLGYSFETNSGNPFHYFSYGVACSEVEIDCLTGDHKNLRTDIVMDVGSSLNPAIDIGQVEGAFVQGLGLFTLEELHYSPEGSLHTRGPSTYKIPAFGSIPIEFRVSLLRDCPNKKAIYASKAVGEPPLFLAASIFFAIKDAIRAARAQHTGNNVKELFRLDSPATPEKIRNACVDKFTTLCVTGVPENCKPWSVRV

Oc1ncnc2[nH]ncc12 [Allopurinol, reference compound]
inhibition at 100 µM [1]: 92%
inhibition at 500 µM [1]: 90%

O=C[C@@H](O)[C@@H](O)[C@H](O)[C@H](O)CO [D-mannose, reference compound]
ks (10^−9M^−1 sec^−1) (±SEM) [2]: 0.94±0.06 10^−9M^−1 sec^−1

Cl.c1cc2c(s1)C(N1CCOCC1)CCC2 (stereo not drawn) [IC2-16]
ks (10^−9M^−1 sec^−1) (±SEM) [2]: 3.33 ± 0.15 10^−9M^−1 sec^−1

c1cc2c(s1)CCCC2N1CCCCC1 (stereo not drawn) [IC023, piperidino-4-tetrahydro-4,5,6,7-benzothiophene]
ks (10^−9M^−1 sec^−1) (±SEM) [2]: 3.61 ± 0.16 10^−9M^−1 sec^−1
inhibition at 100 µM [1]: -6%
% recapture from which the opposite effect is observed ([3]; fixed concentration of X/XO): ≥ 15%
concentration from which the variation (opposite effect) is observed ([3]; in presence of X/XO): ≥ 0.6 mM
concentration from which the product alone becomes "toxic" ([3]; product alone, astrocytes): ≥ 1000 µM

Cl.NC1CCCc2sccc21 (stereo not drawn) [IC088, amino-4-tetrahydro-4,5,6,7-benzothiophene]
ks (10^−9M^−1 sec^−1) (±SEM) [2]: 3.37 ± 0.25 10^−9M^−1 sec^−1
inhibition at 100 µM [1, 4]: -15%

Cl.NC1CCCc2ccsc21 (stereo not drawn) [IC178, amino-7-tetrahydro-4,5,6,7-benzothiophene]
ks (10^−9M^−1 sec^−1) (±SEM) [2]: 2.76 ± 0.06 10^−9M^−1 sec^−1

Cl.c1cc2c(s1)CCCC2N1CCSCC1 (stereo not drawn) [IC193, thiomorpholine-4-tetrahydro-4,5,6,7-benzothiophene]
ks (10^−9M^−1 sec^−1) (±SEM) [2]: 3.41 ± 0.25 10^−9M^−1 sec^−1
inhibition at 100 µM [1, 4]: -7%
inhibition at 500 µM [1, 5]: -2%

CN1CCN(C2CCCc3sccc32)CC1 (stereo not drawn) [IC194, N-methyl-piperazine-4-tetrahydro-4,5,6,7-benzothiophene]
ks (10^−9M^−1 sec^−1) (±SEM) [2]: 3.50 ± 0.23 10^−9M^−1 sec^−1
inhibition at 100 µM [1, 4]: -15%
inhibition at 500 µM [1, 5]: 10%

Cl.OC1CCN(C2CCCc3sccc32)CC1 (stereo not drawn) [IC209, (4 hydroxy-piperidine)-4-tetrahydro-4,5,6,7-benzothiophene]
ks (10^−9M^−1 sec^−1) (±SEM) [2]: 3.27 ± 0.50 10^−9M^−1 sec^−1

Cl.c1cc2c(s1)SCCC2N1CCCCC1 (stereo not drawn) [IC237, piperidino-4-tetrahydro-4,5,6,7-thio-7-benzothiophene]
ks (10^−9M^−1 sec^−1) (±SEM) [2]: 3.45 ± 0.19 10^−9M^−1 sec^−1
inhibition at 100 µM [1]: -9%
inhibition at 500 µM [1]: -8%

Cl.c1cc2c(s1)SCCC2N1CCOCC1 (stereo not drawn) [IC241, morpholine-4 tetrahydro-4,5,6,7-thio-7-benzothiophene]
ks (10^−9M^−1 sec^−1) (±SEM) [2]: 3.01 ± 0.14 10^−9M^−1 sec^−1
inhibition at 100 µM [1, 4]: 7%
inhibition at 500 µM [1, 5]: -8%

CN1CCN(C2CCSc3sccc32)CC1 (stereo not drawn) [IC242, (N-methyl piperazine)-4-tetrahydro-4,5,6,7-thio-7-benzothiophene]
ks (10^−9M^−1 sec^−1) (±SEM) [2]: 3.00 ± 0.19 10^−9M^−1 sec^−1

O=C(O)c1ccccc1O [ac.salicyl., salicylic acid, reference compound]
ks (10^−9M^−1 sec^−1) (±SEM) [2]: 3.02 ± 0.18 10^−9M^−1 sec^−1
ks (10^−9M^−1 sec^−1) (±SEM) ([2]; listed as salicylic acid): 3.02±0.18 10^−9M^−1 sec^−1

O=C1O[C@H]([C@@H](O)CO)C(O)=C1O [vitamin C, reference compound]
ks (10^−9M^−1 sec^−1) (±SEM) [2]: 1.87±0.17 10^−9M^−1 sec^−1

catalase
recapture of glutamate with enzyme in place of test product (in words) ([3]; in presence of X/XO, control, FIG. 1): allows a normal degree of recapture to be attained
